Laboratory results taken from patent US20150250166A1, “NOOTKATONE AS AN INSECTICIDE AND INSECT REPELLENT” (ALLYLIX, INC., priority 2012, published 2015).

Assays:
[1] = test system: adult bed bugs (Cimex lectularius); experiment: Bed bug repellency, treated versus untreated filter paper halves in Petri dish chamber; format: in vivo; details: for Repellency (%) Treatment Group / bed bugs on Nootkatone treatment filter paper (count, of 50) / Repellency (summary of bedbug repellency): 0.1% BHT; for Repellency (summary of bedbug repellency): Day 1
[2] = test system: adult cat fleas (Ctenocephalides felis); experiment: Cat flea repellency, treated versus untreated paper towel halves in payliner; format: in vivo; details: for Percent Repellency (corrected for isopropanol control) / cat fleas on 10% Nootkatone-treated paper towel, average count of five trials (of 10): 10% nootkatone, 0.1% BHT in isopropanol
Protocol: A formulation, containing 10% nootkatone, 0.1% butylated hydroxytoluene (BHT) in isopropanol was tested for efficacy for repelling adult cat fleas (Ctenocephalides felis). Equal amounts of 10% nootkatone solution, stored at ambient temperature and humidity, were applied to five semi-circular pieces of paper towels, arranged so that they were evenly spaced on a sheet of aluminum foil, until sufficiently wet to the touch. Five untreated semi-circular pieces were marked with the letter “c”, for control, on both sides in pencil or solvent resistant ink. Each of the semi-circular pieces of paper towel had the diameter of a 5-gallon payliner. Immediately after spraying the paper towels with the nootkatone solution, the treated towels were placed in 5 5-gallon payliners. The untreated semi-circular paper towels were also placed in the payliners, with the flat sides of the semi-circle side-by-side with those of the treated pieces, so that the bottoms of the payliners were completely covered with paper towel, half treated and half untreated. Five additional payliners with one semi-circular paper towel treated with isopropyl alcohol and the other untreated served as controls. A 9 dram vial, containing 10 cat fleas (El Labs Inc (Soquel, Calif.)) was emptied onto each of the untreated paper towels in the payliners (total of 10 payliners). The distribution of the cat fleas on the control vs. treated paper towels was recorded at 0.5, 1, 1.5, 2, and 24 hours. Observations were made quietly to minimize the disturbance to the fleas by the observer. The containers were kept at ambient temperature and humidity for the duration of the study. The repellency was calculated from the following equation: R=[(C−T)/C]*100, where R is the % repellency, C is the fraction of fleas on the isopropanol-treated paper towel pieces, and T is the fraction of fleas on the nootkatone-treated paper towel pieces.

[3] = 0.50% nootkatone in acetone, Day 1, 0.5 hour

With `C=C(C)[C@@H]1CCC2=CC(=O)C[C@@H](C)[C@]2(C)C1` [nootkatone, 4,4a,5,6,7,8-hexahydro-6-isopropenyl-4,4a-dimethyl-2(3H)-naphtalenone] the “Repellency (%) Treatment Group” value ([1]; 0.01% nootkatone in acetone, Day 1, 1.0 hour) was 66.0%, the “bed bugs on Nootkatone treatment filter paper (count, of 50)” value (shortened to “bed bugs”) ([1]; 0.01% nootkatone in acetone, Day 1, 24.0 hour) was 21 and the “bedbug repellency, in words” value ([1]; 0.01% nootkatone in acetone, day 1 and day 2, statistically significant versus the control) was “moderate bedbug repellency”. For the same compound, the “Repellency (%) Treatment Group” value ([1]; 0.10% nootkatone in acetone, Day 1, 0.5 hour) was 94.0%, the “Repellency (%) Treatment Group” value ([1]; 0.10% nootkatone in acetone, Day 1, 2.0 hour) was 94.0% and the “bedbug repellency, in words” value ([1]; 0.1% nootkatone in acetone, day one) was “good bedbug repellent for one day”. For the same compound, the “Repellency (%) Treatment Group” value [1, 3] was 100.0%, the “bed bugs” value [1, 3] was 0 and the “bed bugs” value ([1]; 0.50% nootkatone in acetone, Day 1, Average of time points) was 0.0. The “Repellency (%) Treatment Group” value ([1]; 0.50% nootkatone in acetone, Day 2, 1.0 hour) was 88.0%, the “bed bugs” value ([1]; 0.50% nootkatone in acetone, Day 2, Average of time points) was 4.2 and the “bedbug repellency, in words” value ([1]; 0.5% nootkatone in acetone, two days) was “good bedbug repellent for two days”. The “Repellency (summary of bedbug repellency)” value ([1]; Nootkatone 0.010% in acetone) was 66.0%, the “Repellency (summary of bedbug repellency)” value ([1]; Nootkatone 0.10% in acetone) was 93.6% and the “cat flea repellency, in words” value ([2]; 10% nootkatone in isopropyl alcohol) was “does not repel cat fleas”. For the same compound, the “Percent Repellency (corrected for isopropanol control)” value (“Percent Repellency” for short) ([2]; 0.5 hr) was −40.0%, the “cat fleas on 10% Nootkatone-treated paper towel, average count of five trials (of 10)” value ([2]; 0.5 hr) was 5.6 and the “Percent Repellency” value ([2]; 1 hr) was 9.5%. The “cat fleas on 10% Nootkatone-treated paper towel, average count of five trials (of 10)” value ([2]; 1 hr) was 3.8, the “Percent Repellency” value ([2]; 1.5 hr) was 9.5% and the “cat fleas on 10% Nootkatone-treated paper towel, average count of five trials (of 10)” value ([2]; 1.5 hr) was 3.8. The “Percent Repellency” value ([2]; 2 hr) was 20.0%, the “cat fleas on 10% Nootkatone-treated paper towel, average count of five trials (of 10)” value ([2]; 2 hr) was 3.2 and the “Percent Repellency” value ([2]; 24 hr) was 38.9%. For the same compound, the “cat fleas on 10% Nootkatone-treated paper towel, average count of five trials (of 10)” value ([2]; 24 hr) was 2.2.
